According to patent US20200331882A1, “COMPOUND FOR SIMULTANEOUSLY INHIBITING LSD1 AND HDAC TARGETS AND APPLICATION THEREOF” (PEKING UNIVERSITY SHENZHEN GRADUATE SCHOOL, priority 2018, published 2020):

Legend:
Assay in all cases: CellTiter-Glo cell proliferation
Assay type in all cases: cell-based
Details in all cases: CTG, 72 hours
[1] = tested on: T84
Experimental: (§1) The effect of the present invention compound ZZY-003 on the cell proliferation of 50 cell lines was evaluated by CellTiter-Glo (CTG) method, and the 50% inhibitory concentration was calculated by detecting the cell viability after treatment with different drug concentrations. The cells were resuscitated and cultured in their respective culture media. The cells in logarithmic growth phase were harvested and the cells were counted by cell counter. The cell viability was detected by Trypan blue exclusion method to ensure that the cell line viability was more than 96%. The cell concentration was adjusted by diluting with the culture medium, and 90 μL cell suspension was added to the 96-well cell plate (including the cell control T0 on the day of drug treatment) to make the cell density reach the specified concentration. The cells in the 96-well plate were cultured overnight at 37° C., 5% CO2 and 95% humidity. 10 μL culture medium was added to the control cell culture plate. CellTiter-Glo reagent and cell culture plate were placed at room temperature to balance for 30 minutes. The same volume of CellTiter-Glo reagent was added to each well. Vibrate on the orbital shaker for 2 min to make the cells fully lytic. The cell culture plate was placed at room temperature to balance for 10 minutes. Chemiluminescence values were read with EnVision. The storage solution was formed by dissolving the tested compound with the corresponding solvent and diluted in gradient to obtain 10 times working concentration solution, and 10 times solution of positive drug was also prepared. 10 μL drug solution was added to each well in the 96-well plate in which the cells were inoculated, and each cell concentration was provided with three duplicate wells. The highest concentration of the tested compound was 10/50 μM, 9 concentrations and 3.16 times dilution. The cells in the 96-well plate added with drug were cultured at 37° C., 5% CO2 and 95% humidity for 72 hours. CellTiter-Glo reagent and drug-treated cell culture plate were placed at room temperature to balance for 30 minutes. The same volume of CellTiter-Glo reagent was added to each well. Vibrate on the orbital shaker for 2 minutes to make the cells fully lytic. The cell culture plate was placed at room temperature to balance for 10 minutes. Chemiluminescence values were read with EnVision. Data processing: […] Cell survival rate (%)=(Lum drug to be detected−Lum culture medium control)/(Lum cell control−Lum culture medium control)×100%; Lum cell control−Lum culture medium control was set to 100%, LumMedium control value was set to 0%;

[2] = tested on: SW480
Experimental: as §1

[3] = tested on: Ramos
Experimental: as §1

[4] = tested on: Jurkat clone E6-1
Experimental: as §1

[5] = tested on: HL-60
Experimental: as §1

[6] = tested on: OPM2
Experimental: as §1

[7] = tested on: SNU-5
Experimental: as §1

[8] = tested on: PC-3
Experimental: as §1

[9] = tested on: LP-1
Experimental: as §1

[10] = tested on: U-937
Experimental: as §1

[11] = tested on: UO.31
Experimental: as §1

[12] = tested on: MDA-MB-453
Experimental: as §1

[13] = tested on: SNU-761
Experimental: as §1

[14] = tested on: AMO-1
Experimental: as §1

[15] = tested on: NCI-H82
Experimental: as §1

[16] = tested on: HeLa
Experimental: as §1

[17] = tested on: EBC-1
Experimental: as §1

[18] = tested on: AN3 CA
Experimental: as §1

[19] = tested on: BT474
Experimental: as §1

[20] = tested on: SK-MEL-28
Experimental: as §1

[21] = tested on: SK-N-FI
Experimental: as §1

[22] = tested on: HT-1376
Experimental: as §1

[23] = tested on: 5637
Experimental: as §1

[24] = tested on: AZ-521
Experimental: as §1

[25] = tested on: MOLM-13
Experimental: as §1

[26] = tested on: MIA PaCa-2
Experimental: as §1

[27] = tested on: SK-OV-3
Experimental: as §1

[28] = tested on: CNE-2Z
Experimental: as §1

[29] = tested on: U266B1
Experimental: as §1

For N.N.[Cl][Pt][Cl] [Cisplatin, reference compound], the “% inhibition at top conc.” value ([1]; highest concentration 10/50 μM) was 87.03%, the IC50 ([1]; read-out: Absolute IC50) was 5.05 µM and the “% inhibition at top conc.” value ([2]; highest concentration 10/50 μM) was 94.12%. The IC50 ([2]; read-out: Absolute IC50) was 2.69 µM, the “% inhibition at top conc.” value ([3]; highest concentration 10/50 μM) was 99.98% and the IC50 ([3]; read-out: Absolute IC50) was 1.78 µM. For the same molecule, the “% inhibition at top conc.” value ([4]; highest concentration 10/50 μM) was 99.96%, the IC50 ([4]; read-out: Absolute IC50) was 0.84 µM and the “% inhibition at top conc.” value ([5]; highest concentration 10/50 μM) was 99.99%. The IC50 ([5]; read-out: Absolute IC50) was 1.56 µM, the “% inhibition at top conc.” value ([6]; highest concentration 10/50 μM) was 99.97% and the IC50 ([6]; read-out: Absolute IC50) was 3.67 µM. For the same molecule, the “% inhibition at top conc.” value ([7]; highest concentration 10/50 μM) was 97.87%, the IC50 ([7]; read-out: Absolute IC50) was 2.45 µM and the “% inhibition at top conc.” value ([8]; highest concentration 10/50 μM) was 85.52%. The IC50 ([8]; read-out: Absolute IC50) was 5.34 µM, the “% inhibition at top conc.” value ([9]; highest concentration 10/50 μM) was 99.89% and the IC50 ([9]; read-out: Absolute IC50) was 8.68 µM. For the same molecule, the “% inhibition at top conc.” value ([10]; highest concentration 10/50 μM) was 99.97%, the IC50 ([10]; read-out: Absolute IC50) was 2.19 µM and the “% inhibition at top conc.” value ([11]; highest concentration 10/50 μM) was 97.89%. For the same molecule, the IC50 ([11]; read-out: Absolute IC50) was 4.23 µM, the “% inhibition at top conc.” value ([12]; highest concentration 10/50 μM) was 95.15% and the IC50 ([12]; read-out: Absolute IC50) was 12.9 µM. For the same molecule, the “% inhibition at top conc.” value ([13]; highest concentration 10/50 μM) was 99.92%, the IC50 ([13]; read-out: Absolute IC50) was 4.52 µM and the “% inhibition at top conc.” value ([14]; highest concentration 10/50 μM) was 99.99%. For the same molecule, the IC50 ([14]; read-out: Absolute IC50) was 0.95 µM, the “% inhibition at top conc.” value ([15]; highest concentration 10/50 μM) was 99.63% and the IC50 ([15]; read-out: Absolute IC50) was 4 µM. For the same molecule, the “% inhibition at top conc.” value ([16]; highest concentration 10/50 μM) was 99.45%, the IC50 ([16]; read-out: Absolute IC50) was 0.37 µM and the “% inhibition at top conc.” value ([17]; highest concentration 10/50 μM) was 85.11%. The IC50 ([17]; read-out: Absolute IC50) was 17.8 µM, the “% inhibition at top conc.” value ([18]; highest concentration 10/50 μM) was 99.96% and the IC50 ([18]; read-out: Absolute IC50) was 4.43 µM. The “% inhibition at top conc.” value ([19]; highest concentration 10/50 μM) was 67.02%, the IC50 ([19]; read-out: Absolute IC50) was 66.1 µM and the “% inhibition at top conc.” value ([20]; highest concentration 10/50 μM) was 99.34%. The IC50 ([20]; read-out: Absolute IC50) was 8.61 µM, the “% inhibition at top conc.” value ([21]; highest concentration 10/50 μM) was 99.81% and the IC50 ([21]; read-out: Absolute IC50) was 10.2 µM. For the same molecule, the “% inhibition at top conc.” value ([22]; highest concentration 10/50 μM) was 88.74%, the IC50 ([22]; read-out: Absolute IC50) was 4.1 µM and the “% inhibition at top conc.” value ([23]; highest concentration 10/50 μM) was 99.05%. The IC50 ([23]; read-out: Absolute IC50) was 2.6 µM, the “% inhibition at top conc.” value ([24]; highest concentration 10/50 μM) was 99.92% and the IC50 ([24]; read-out: Absolute IC50) was 2.89 µM. For the same molecule, the “% inhibition at top conc.” value ([25]; highest concentration 10/50 μM) was 99.99%, the IC50 ([25]; read-out: Absolute IC50) was 0.77 µM and the “% inhibition at top conc.” value ([26]; highest concentration 10/50 μM) was 99.18%. For the same molecule, the IC50 ([26]; read-out: Absolute IC50) was 6.05 µM, the “% inhibition at top conc.” value ([27]; highest concentration 10/50 μM) was 89.16% and the IC50 ([27]; read-out: Absolute IC50) was 5.17 µM. For the same molecule, the “% inhibition at top conc.” value ([28]; highest concentration 10/50 μM) was 96.44%, the IC50 ([28]; read-out: Absolute IC50) was 1.18 µM and the “% inhibition at top conc.” value ([29]; highest concentration 10/50 μM) was 98.85%. It also gave an IC50 ([29]; read-out: Absolute IC50) of 14.3 µM.
